#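 Dose response: 5 concentrations. Exposure: 48 h. Format: 96-well plates. Endpoint: linear interpolation; highest concentration if not reached. The concentration for 50% growth inhibition is given as GI50.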 Active and inactive are the calls of the source. Rule as the data show it: active = GI50 up to about 1.1 µM and inactive = higher.
# How the values were obtained:
# Test in all cases: NCI tumour cell line growth inhibition, 48 h
# [1] = tested on: HOP-18
# [2] = tested on: XF498
# [3] = tested on: M19-MEL
# [4] = tested on: DMS-114
# [5] = tested on: DLD-1
# [6] = tested on: KM-20L2
# [7] = tested on: SNB-78
# [8] = tested on: LXFL 529
# [9] = tested on: RXF 631
Compound,GI50 [1],GI50 [2],GI50 [3],GI50 [4],GI50 [5],GI50 [6],GI50 [7],GI50 [8],GI50 [9]
COc1ccc2c3c(c(C(=O)c4ccccc4)oc13)CCC2,> 100 µM (inactive),> 100 µM (inactive),> 100 µM (inactive),> 100 µM (inactive),> 100 µM (inactive),> 100 µM (inactive),> 100 µM (inactive),> 100 µM (inactive),> 100 µM (inactive)
C/C(CC(=O)N(C(C)C)C(C)C)=N\NC(=O)c1ccncc1,> 100 µM (inactive),> 100 µM (inactive),> 100 µM (inactive),,> 100 µM (inactive),> 100 µM (inactive),> 100 µM (inactive),> 100 µM (inactive),> 100 µM (inactive)
COc1c(C)cc2c(c1O)C1NC(C2)[C@H](O)N2C3COC(=O)[C@@]4(CS[C@@H](c5c(OC(C)=O)c(C)c6c(c53)OCO6)C12)NCCC1=C4NC2C=CC=CC12 (stereo not given in full),,< 0.01 µM (active),< 0.01 µM (active),< 0.01 µM (active),< 0.01 µM (active),< 0.01 µM (active),,< 0.01 µM (active),< 0.01 µM (active)
O=C1COc2cc(NC(=S)Nc3ccccc3)ccc2N1,> 100 µM (inactive),> 100 µM (inactive),> 100 µM (inactive),> 100 µM (inactive),> 100 µM (inactive),> 100 µM (inactive),> 100 µM (inactive),> 100 µM (inactive),> 100 µM (inactive)
Cc1ccc(S(=O)(=O)N2CCC2c2ccccc2)cc1 (stereo not given),80 µM (inactive),74 µM (inactive),> 100 µM (inactive),48.1 µM (inactive),,> 100 µM (inactive),> 100 µM (inactive),,
N/C(=N\O)N/N=C/c1ccc(C(F)(F)F)cc1,,13.8 µM (inactive),35.2 µM (inactive),18.4 µM (inactive),24.7 µM (inactive),,39.4 µM (inactive),10.9 µM (inactive),
COc1ccc2c3c([nH]c2c1[N+](=O)[O-])C(C)N(Cc1ccccc1)CC3 (stereo not given),,,,3.39 µM (inactive),> 100 µM (inactive),3.78 µM (inactive),3.59 µM (inactive),5.07 µM (inactive),
COc1cc2ccnc(C#N)c2cc1OCc1ccccc1,> 100 µM (inactive),53.6 µM (inactive),,,> 100 µM (inactive),> 100 µM (inactive),> 100 µM (inactive),> 100 µM (inactive),
Nc1nc(SCCNC(=O)CCc2ccc(O)cc2)nc2c1ncn2C1OC(CO)C(O)C1O (stereo not given),> 203 µM (inactive),> 203 µM (inactive),> 203 µM (inactive),> 203 µM (inactive),> 203 µM (inactive),> 203 µM (inactive),> 203 µM (inactive),,
COC1OC(CO)C(O)C(O)C1Br (stereo not given),> 100 µM (inactive),> 100 µM (inactive),> 100 µM (inactive),,> 100 µM (inactive),> 100 µM (inactive),> 100 µM (inactive),> 100 µM (inactive),> 100 µM (inactive)
C[N+](C)(C)Cc1c(CC#N)[nH]c2ccccc12,,> 100 µM (inactive),> 100 µM (inactive),> 100 µM (inactive),> 100 µM (inactive),> 100 µM (inactive),,> 100 µM (inactive),
Cn1c(C2CC(C)(C)c3c2c2ccccc2n3C)cc2ccccc21 (stereo not given),,115 µM (inactive),> 304 µM (inactive),138 µM (inactive),> 304 µM (inactive),> 304 µM (inactive),,> 304 µM (inactive),
NC1=C(Br)C(=O)c2ncccc2C1=O,,0.998 µM (active),0.159 µM (active),0.16 µM (active),0.607 µM (active),1.86 µM (inactive),0.828 µM (active),0.321 µM (active),1.79 µM (inactive)
CC/C=C1\N=C(c2ccc(Cl)cc2)OC1=O,,> 100 µM (inactive),> 100 µM (inactive),> 100 µM (inactive),> 100 µM (inactive),> 100 µM (inactive),> 100 µM (inactive),> 100 µM (inactive),
COc1ccc(/C(Cl)=C(\C=N/O)c2ccc(OC)c(OC)c2)cc1OC,> 100 µM (inactive),> 100 µM (inactive),> 100 µM (inactive),30.8 µM (inactive),> 100 µM (inactive),> 100 µM (inactive),75.5 µM (inactive),> 100 µM (inactive),
Cc1ccc(C)c2c1CCc1cc3ccccc3nc1-2,2.65 µM (inactive),> 100 µM (inactive),> 100 µM (inactive),> 100 µM (inactive),> 100 µM (inactive),> 100 µM (inactive),> 100 µM (inactive),> 100 µM (inactive),
NC(=O)CCC(NC(=O)Cc1ccccc1)C(=O)O.NC(CCC(=O)NC(=O)Cc1ccccc1)C(=O)O (stereo not given),> 8130 µM (inactive),,> 8130 µM (inactive),> 8130 µM (inactive),> 8130 µM (inactive),> 8130 µM (inactive),,> 8130 µM (inactive),
Cc1ccccc1C(=O)N1CCN(C(=O)c2ccccc2C)CC1,> 100 µM (inactive),> 100 µM (inactive),> 100 µM (inactive),,> 100 µM (inactive),> 100 µM (inactive),> 100 µM (inactive),> 100 µM (inactive),> 100 µM (inactive)
COC1/C=C\C=C(/C)C(=O)NC2=CC(=O)C(N)=C(CC(C)CC(OC)C(O)C(C)C=C(C)C1OC(N)=O)C2=O (stereo not given),< 0.01 µM (active),0.0565 µM (active),< 0.01 µM (active),,0.0689 µM (active),< 0.01 µM (active),3.55 µM (inactive),0.0462 µM (active),0.303 µM (active)
O=Cc1cn(S(=O)(=O)c2ccccc2)c2ccccc12,32.4 µM (inactive),46 µM (inactive),37.5 µM (inactive),24.8 µM (inactive),27.2 µM (inactive),> 100 µM (inactive),41.3 µM (inactive),36.4 µM (inactive),53.7 µM (inactive)
